Measured values from the supplement of paper PMC10307832.

How the values were obtained:
Assay in all cases: relative viability (nuclei count vs DMSO), 5 days (fraction); higher = more cells survive
[1] = compound: C[C@@H](C(=O)N[C@@H](C1CCCCC1)C(=O)N2CCC[C@H]2C(=O)N[C@@H]3[C@@H](CC4=CC=CC=C34)OCC#CC#CCO[C@@H]5CC6=CC=CC=C6[C@@H]5NC(=O)[C@@H]7CCCN7C(=O)[C@H](C8CCCCC8)NC(=O)[C@H](C)NC)NC [AZD5582] + CC(=O)Nc1cccc(-n2c(=O)n(C3CC3)c(=O)c3c(Nc4ccc(I)cc4F)n(C)c(=O)c(C)c32)c1 [Trametinib] (partner 0.02 µM)
Outline: (§1)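 The day after seeding in 1536-well plates, lung cancer cell lines were treated by pin tool with a single drug, or with a fixed anchor-drug dose together with five library-drug doses (not always all listed) in √10 steps. After 5 days, a combined fix-and-stain solution (final 0.05% Triton X-100, 1% formaldehyde, 1 ug/ml Hoechst) was added. Nuclei counted on 4× images gave relative viability as treated counts over vehicle counts, reported as the median of duplicate plates.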

[2] = compound: C[C@@H](C(=O)N[C@@H](C1CCCCC1)C(=O)N2CCC[C@H]2C(=O)N[C@@H]3[C@@H](CC4=CC=CC=C34)OCC#CC#CCO[C@@H]5CC6=CC=CC=C6[C@@H]5NC(=O)[C@@H]7CCCN7C(=O)[C@H](C8CCCCC8)NC(=O)[C@H](C)NC)NC [AZD5582] + N=C(N)NC(=N)NCCc1ccccc1 [Phenformin] (partner 250 µM)
Outline: as §1

[3] = compound: C[C@@H](C(=O)N[C@@H](C1CCCCC1)C(=O)N2CCC[C@H]2C(=O)N[C@@H]3[C@@H](CC4=CC=CC=C34)OCC#CC#CCO[C@@H]5CC6=CC=CC=C6[C@@H]5NC(=O)[C@@H]7CCCN7C(=O)[C@H](C8CCCCC8)NC(=O)[C@H](C)NC)NC [AZD5582] + Nc1ncn([C@H]2C[C@H](O)[C@@H](CO)O2)c(=O)n1 [Decitabine] (partner 2 µM)
Outline: as §1

[4] = compound: Cn1nnc2c(C(N)=O)ncn2c1=O [Temozolomide] + CC1(C)CCC(c2ccc(Cl)cc2)=C(CN2CCN(c3ccc(C(=O)NS(=O)(=O)c4ccc(N[C@H](CCN5CCOCC5)CSc5ccccc5)c(S(=O)(=O)C(F)(F)F)c4)cc3)CC2)C1 [Navitoclax] (partner 0.5 µM)
Outline: as §1

Cell Line	relative viability ([1]; first compound 0.001581 µM)	relative viability ([1]; first compound 0.005 µM)	relative viability ([1]; first compound 0.01581 µM)	relative viability ([1]; first compound 0.05 µM)	relative viability ([2]; first compound 0.001581 µM)	relative viability ([2]; first compound 0.005 µM)	relative viability ([2]; first compound 0.01581 µM)	relative viability ([2]; first compound 0.05 µM)	relative viability ([3]; first compound 0.001581 µM)	relative viability ([3]; first compound 0.005 µM)	relative viability ([3]; first compound 0.01581 µM)	relative viability ([3]; first compound 0.05 µM)	relative viability ([4]; first compound 0.2 µM)	relative viability ([4]; first compound 0.6325 µM)	relative viability ([4]; first compound 2 µM)	relative viability ([4]; first compound 6.325 µM)	relative viability ([4]; first compound 20 µM)
NCI-H23	0.31	0.37	0.359	0.319	0.66	0.611	0.518	0.425	0.334	0.293	0.27	0.278	1.04	0.93	0.857	0.86	0.851
NCI-H596	0.738	–	0.8	0.588	–	–	0.764	0.217	1.02	–	1.06	0.39	0.9	0.924	0.946	0.977	0.981
LU99A	0.575	0.68	0.534	0.617	0.785	0.927	0.819	0.997	0.882	1.09	0.829	0.97	0.894	0.781	0.733	0.713	0.746
LCLC-97TM1	0.203	0.25	0.184	0.189	0.402	0.467	0.2	0.409	0.216	0.189	0.243	0.0933	0.546	0.443	0.49	0.445	0.512
HCC-78	0.735	0.813	0.712	0.534	0.606	0.664	0.389	0.567	0.786	0.703	0.688	0.585	0.48	0.738	0.953	0.836	0.793
SK-MES-1	0.675	0.949	0.542	1	0.6	0.678	0.649	0.655	0.336	0.365	0.416	0.347	1.22	1.16	1.23	1.22	1.38
NCI-H838	0.493	0.582	0.405	0.498	0.551	0.703	–	0.594	0.451	0.41	0.476	0.396	1.13	1.11	1.17	1.19	1.17
HCC-15	0.328	0.39	0.332	0.365	0.391	0.437	0.31	0.402	0.534	0.559	0.602	0.418	0.746	0.731	0.805	0.687	0.689
EPLC-272H	0.15	–	0.292	0.0966	0.0525	–	0.233	0.0492	0.148	–	0.385	0.0824	1.15	1.01	1.12	0.996	0.879
UMC-11	0.624	0.679	0.629	0.417	0.281	0.301	0.298	0.412	0.637	0.638	0.731	0.71	0.338	0.315	0.313	0.281	0.274
HARA	0.464	0.719	0.747	0.976	0.415	0.501	0.493	0.403	0.595	0.53	0.565	0.49	1.19	1.17	1.24	1.13	1.2
NCI-H2170	0.904	0.825	0.861	1.03	0.38	0.455	0.36	0.409	0.489	0.474	0.478	0.504	–	0.478	0.6	0.534	0.32
201T	0.786	0.842	0.719	0.847	0.459	0.478	0.406	0.579	0.866	0.913	0.856	1.02	1.17	1.18	1.21	1.2	1.22
NCI-H1944	0.36	0.487	0.406	0.485	0.176	0.227	0.193	0.286	0.432	0.485	0.494	0.457	0.855	1.05	1.12	1.04	0.913
H3255	0.58	0.667	0.557	0.524	0.392	0.326	0.34	0.353	0.556	0.626	0.572	0.553	–	0.523	0.469	0.485	0.0789
NCI-H1437	0.43	0.572	0.461	0.573	0.251	0.279	0.254	0.365	0.543	0.554	0.595	0.565	1.15	1.12	1.13	1.13	1.17
NCI-H2347	0.327	0.266	0.264	0.311	0.356	0.352	0.38	0.239	0.701	0.624	0.668	0.469	0.818	0.825	0.441	0.73	0.732
SK-LU-1	0.379	0.383	0.407	0.236	0.362	0.342	0.508	0.279	0.535	0.379	0.673	0.21	1.03	0.88	0.8	0.522	0.189
